Several values for one entry are separate records, joined by “and”; a condition that tells them apart may be missing. Identical values can stand only once. Like-named read-outs stand apart in the source and are kept apart here.
Columns and labels:
Assay type in all cases: cell-based, human
BxPC3 = assay: Chemosensitivity, 96 h continuous exposure, MTT assay;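 on SI (NPI): adult human brain neural progenitor non-cancer cells from an epilepsy surgery patient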;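 on Selectivity Index using the NPI non-cancer cell line: adult human brain neural progenitor non-cancer cells from an epilepsy surgery patient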
Outline: (§1)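 Cells were seeded overnight at 37 °C (2 × 10^3/well; GBM1 at 3 × 10^3/well on poly-L-ornithine/laminin in Neurobasal with hFGF/rhEGF), then exposed to compound concentration ranges for 96 h. Viability was read by MTT (4 h, formazan in DMSO, A540) and IC50 taken from dose–response curves.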

DLD-1 = assay: as above;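 on SI (NPI): adult human brain neural progenitor non-cancer cells from an epilepsy surgery patient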;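 on Selectivity Index using the NPI non-cancer cell line: adult human brain neural progenitor non-cancer cells from an epilepsy surgery patient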
Outline: as §1

HCT116 p53+/+ = assay: as above
Outline: as §1

MCF10A non-cancer cells = assay: as above
Outline: as §1

ARPE-19 = assay: Quantification of cellular ATP levels (CellTiterGlo); conditions: ARPE-19 cells, average of runs, relative to 0 µM = 100
Protocol: ARPE-19 and HCT116 p53^+/+ cells were seeded in 96-well opaque plates at a density of 7500 cells/well. 24 h after seeding, cells were treated for 20 h with a range of concentrations of [[…]]^6+, [L2Zn3]^6+, [[…]]^6+, or vehicle control (2-fold serial dilution from 100-3.125 μM) before determining total cellular ATP content by quantification of luminescence (CellTiterGlo® assay, Promega). ATP levels were normalised relative to levels in vehicle control-treated cells.

HCT116 p53-/- = assay: Confocal imaging of autophagic cells (CYTO-ID); conditions: 3.125 µM, 40 h
Protocol: Cells were seeded in Lumox chamber slides (8-well, Sarstedt) at a density of 1.25 × 10^4 cells/well (ARPE-19) or 5.625 × 10^4 cells/well (HCT116 p53^−/− and HCT116 p53^+/+). 24 h after seeding, cells were treated with 3.125 μM of [L2Cu3]^6+, [L2Zn3]^6+, [L2Mn3]^6+, or vehicle control for 40 h before removal and addition of CYTO-ID Green autophagic dye (1:500 dilution, Enzo Life Sciences) and Hoechst 3342 nuclear counter stain for 30 min at 37 °C. Media was then replaced before imaging using a Zeiss LSM880 confocal laser scanning microscope.

[Cu+2].[Cu+2].[Cu+2].c1ccc(-c2csc(NCCN(CCNc3nc(-c4ccccn4)cs3)CCNc3nc(-c4ccccn4)cs3)n2)nc1.c1ccc(-c2csc(NCCN(CCNc3nc(-c4ccccn4)cs3)CCNc3nc(-c4ccccn4)cs3)n2)nc1 [[L2Cu3]6+]
IC50 (BxPC3; BXPC3, mean of replicates, read-out: Mean IC50): 293 nM | IC50 (BxPC3; BXPC3, read-out: Mean IC50 values): 293 nM | IC50 (BxPC3; BxPC3, 96 h, MTT, individual run, read-out: IC50 values for each replicate): 226 nM and 267 nM and 443 nM and 237 nM | IC50 (BxPC3; BxPC3, 96 h, MTT, mean of at least 3 independent experiments, read-out: Mean IC50): 293 nM | Selectivity index (ARPE19) (BxPC3; IC50 ARPE-19 / IC50 BXPC3): 179.62 | Selectivity index (MCF10A) (BxPC3; IC50 MCF10A / IC50 BXPC3): 164.71 | Selectivity Index using the NPI non-cancer cell line (BxPC3; IC50 NP1 / IC50 BXPC3): 147.06 | SI (ARPE19) (BxPC3; mean IC50 ARPE-19 / mean IC50 BxPC3): 179.62 | SI (MCF10A) (BxPC3; mean IC50 MCF10A / mean IC50 BxPC3): 164.71 | SI (NPI) (BxPC3; mean IC50 NP1 / mean IC50 BxPC3): 147.06 | Relative potency (+ anion to no anion), Ratio + anion:no anion (BxPC3; ratio of IC50, BXPC3): 1 | Selectivity indices relative to ARPE-19, Ratio + anion:no anion (BxPC3; ratio of SI (ARPE-19), BXPC3): 1 | Selectivity indices relative to MCF10A, Ratio + anion:no anion (BxPC3; ratio of SI (MCF 10A), BXPC3): 1 | IC50 (DLD-1; DLD-1, 96 h, MTT, mean of at least 3 independent experiments, read-out: Mean IC50): 132 nM | IC50 (DLD-1; DLD-1, mean of replicates, read-out: Mean IC50): 132 nM | IC50 (DLD-1; DLD-1, read-out: Mean IC50 values): 132 nM | Selectivity index (ARPE19) (DLD-1; IC50 ARPE-19 / IC50 DLD-1): 398.71 | Selectivity index (MCF10A) (DLD-1; IC50 MCF10A / IC50 DLD-1): 365.61 | Selectivity Index using the NPI non-cancer cell line (DLD-1; IC50 NP1 / IC50 DLD-1): 326.44 | SI (ARPE19) (DLD-1; mean IC50 ARPE-19 / mean IC50 DLD-1): 398.71 | SI (MCF10A) (DLD-1; mean IC50 MCF10A / mean IC50 DLD-1): 365.61 | SI (NPI) (DLD-1; mean IC50 NP1 / mean IC50 DLD-1): 326.44 | Relative potency (+ anion to no anion), Ratio + anion:no anion (DLD-1; ratio of IC50, DLD-1): 1 | Selectivity indices relative to ARPE-19, Ratio + anion:no anion (DLD-1; ratio of SI (ARPE-19), DLD-1): 1 | Selectivity indices relative to MCF10A, Ratio + anion:no anion (DLD-1; ratio of SI (MCF 10A), DLD-1): 1 | IC50 (HCT116 p53+/+; HCT116 p53+/+, 96 h, MTT, individual run, read-out: IC50 values for each replicate): 240 nM and 533 nM and 528 nM and 499 nM and 677 nM | IC50 (HCT116 p53+/+; HCT116 p53+/+, 96 h, MTT, mean of at least 3 independent experiments, read-out: Mean IC50): 496 nM | IC50 (HCT116 p53+/+; HCT116 p53+/+, mean of replicates, read-out: Mean IC50): 496 nM | IC50 (HCT116 p53+/+; HCT116 p53+/+, read-out: Mean IC50 values): 496 nM | Selectivity index (ARPE19) (HCT116 p53+/+; IC50 ARPE-19 / IC50 HCT116 p53+/+): 106.11 and 106.2 | Selectivity index (MCF10A) (HCT116 p53+/+; IC50 MCF10A / IC50 HCT116 p53+/+): 97.30 | Selectivity Index using the NPI non-cancer cell line (HCT116 p53+/+; IC50 NP1 / IC50 HCT116 p53+/+): 86.88 | SI (ARPE19) (HCT116 p53+/+; mean IC50 ARPE-19 / mean IC50 HCT116 p53+/+): 106.11 | SI (MCF10A) (HCT116 p53+/+; mean IC50 MCF10A / mean IC50 HCT116 p53+/+): 97.30 | SI (NPI) (HCT116 p53+/+; mean IC50 NP1 / mean IC50 HCT116 p53+/+): 86.88 | Relative potency (+ anion to no anion), Ratio + anion:no anion (HCT116 p53+/+; ratio of IC50, HCT116 p53+/+): 1 | Selectivity indices relative to ARPE-19, Ratio + anion:no anion (HCT116 p53+/+; ratio of SI (ARPE-19), HCT116 p53+/+): 1 | Selectivity indices relative to MCF10A, Ratio + anion:no anion (HCT116 p53+/+; ratio of SI (MCF 10A), HCT116 p53+/+): 1 | IC50 (MCF10A non-cancer cells; MCF10A non-cancer, read-out: Mean IC50 values): 48300 nM | IC50 (MCF10A non-cancer cells; MCF10A, 96 h, MTT, individual run, read-out: IC50 values for each replicate): 51900 nM and 58100 nM and 39000 nM and 43800 nM and 48500 nM | IC50 (MCF10A non-cancer cells; MCF10A, 96 h, MTT, mean of at least 3 independent experiments, read-out: Mean IC50): 48300 nM | IC50 (MCF10A non-cancer cells; MCF10A, mean of replicates, read-out: Mean IC50): 48300 nM | Relative potency (+ anion to no anion), Ratio + anion:no anion (MCF10A non-cancer cells; ratio of IC50, MCF10A): 1 | % ATP Activity (Average) (ARPE-19; 3.125 µM complex): 91.48% | % ATP Activity (Average) (ARPE-19; 6.25 µM complex): 92.26% | % ATP Activity (Average) (ARPE-19; 12.5 µM complex): 92.93% | % ATP Activity (Average) (ARPE-19; 25 µM complex): 95.14% | % ATP Activity (Average) (ARPE-19; 50 µM complex): 85.50% | % ATP Activity (Average) (ARPE-19; 100 µM complex): 56.08% | induction of vacuoles / autophagy (CYTO-ID) (HCT116 p53-/-): no or little autophagy | induction of vacuoles / autophagy (CYTO-ID) (HCT116 p53-/-; listed as [L2Cu3]^6+): did not
